# From patent US12152012B2, “BRAG2 inhibitors and applications thereof” (CENTRE NATIONAL DE LA RECHERCHE SCIENTIFIQUE, priority 2018, dated 2024)
# What was measured:
# [1] = target: T1, BIG1 (DCB-HUS-Sec7 construct) (Homo sapiens, UniProt Q9Y6D6); assay: Nucleotide exchange kinetics on liposomes, activation of myristoylated Arf1; type: biochemical; conditions: 50 μM
# T1 construct: BIG1^Sec7 (691-889), BIG1^DcbHusSec7 (2-888); made in house
# T1 sequence (Q9Y6D6 2-888): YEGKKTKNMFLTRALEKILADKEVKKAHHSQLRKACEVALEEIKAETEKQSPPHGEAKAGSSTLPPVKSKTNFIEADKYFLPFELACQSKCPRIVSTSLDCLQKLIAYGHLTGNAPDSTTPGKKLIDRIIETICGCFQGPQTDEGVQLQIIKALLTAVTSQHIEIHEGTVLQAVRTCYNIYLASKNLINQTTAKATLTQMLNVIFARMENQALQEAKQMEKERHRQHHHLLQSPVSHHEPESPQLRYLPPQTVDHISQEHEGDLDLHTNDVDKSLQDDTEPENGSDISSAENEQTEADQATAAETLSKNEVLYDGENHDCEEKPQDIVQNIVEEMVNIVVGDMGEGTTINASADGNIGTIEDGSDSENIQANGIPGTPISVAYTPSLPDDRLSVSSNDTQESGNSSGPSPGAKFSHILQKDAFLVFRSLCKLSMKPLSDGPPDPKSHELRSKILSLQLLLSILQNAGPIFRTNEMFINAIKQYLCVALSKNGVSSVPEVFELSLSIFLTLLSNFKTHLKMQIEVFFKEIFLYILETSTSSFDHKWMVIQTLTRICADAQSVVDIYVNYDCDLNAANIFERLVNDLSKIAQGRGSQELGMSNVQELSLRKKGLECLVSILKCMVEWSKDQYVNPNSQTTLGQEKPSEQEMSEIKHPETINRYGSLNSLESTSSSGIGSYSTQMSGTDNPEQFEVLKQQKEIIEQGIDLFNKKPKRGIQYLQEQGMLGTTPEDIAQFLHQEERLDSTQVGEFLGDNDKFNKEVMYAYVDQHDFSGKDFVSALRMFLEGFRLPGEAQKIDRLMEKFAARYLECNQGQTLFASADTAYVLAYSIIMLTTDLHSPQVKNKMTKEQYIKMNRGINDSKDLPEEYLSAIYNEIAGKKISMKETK
# Procedure: (§1) The effect of Bragsin1 on the GEF efficiency of representative human ArfGEFs was evaluated by fluorescence kinetics using highly purified recombinant Arf GTPases and ArfGEFs. In a first series of assays, the Sec7 domains of BIG1, a Golgi ArfGEF, and of ARNO, EFA6a and BRAG2, which function at the plasma membrane, were used. When tested in solution, Bragsin1 had no effect on the activation of Arf1 by any of these Sec7 domains (FIGS. 2a and 14). Separately, we reconstituted the activation of myristoylated Arf1 by the same ArfGEFs on liposomes using ArfGEF constructs that contain a membrane-binding domain (DCB-HUS domain for BIG1, PH domains for the other GEFs). […] BRAG2 activates several Arf isoforms, including the plasma membrane-located Arf6 isoform. […] Bragsin1 and Bragsin2 have the same IC50 towards BRAG2 ([…]) according to dose-response analysis, confirming that Bragsin1 and Bragsin2 can be used interchangeably (FIG. 2d). The specific inhibition of BRAG2 by Bragsin in vitro predicts that BRAG2 silencing by siRNA should yield the same phenotype as treatment by the small molecule. Silencing of BRAG2 induced the redistribution of TGN46 into tubular or punctate structures, which phenocopied the effects induced by Bragsin (FIGS. 2e, 17 and 18). […] Silencing of ARNO, which is located at the plasma membrane, had no effect on TGN46 distribution. Overexpression of BRAG2-mCherry rescued the dispersion of the TGN46 structure induced by Bragsin, which is consistent with the silencing experiments (FIG. 2f). Bragsin is a specific inhibitor of the ArfGEF BRAG2 in vitro and in cells according to these experiments. These oexperiments identify a mechanism of inhibition that requires the membrane to manifests itself.
# (§2) Bovine Δ17Arf1 and human Δ13Arf6, full-length myristoylated Arf1 and Arf6, human BRAG2^Sec7 (390-594) and BRAG2^Sec7PH (390-811), human EFA6^Sec7 (527-727) and EFA6^Sec7PHCt (527-1024), ARNO^Sec7 (50-256), BIG1^Sec7 (691-889), BIG1^DcbHusSec7 (2-888) and ARNO^Sec7PH (50-399) were expressed and purified as in (Benabdi, S. et al. Family-wide Analysis of the Inhibition of Arf Guanine Nucleotide Exchange Factors with Small Molecules: Evidence of Unique Inhibitory Profiles. Biochemistry 56, 5125-5133 (2017)) and references therein. BRAG2^Sec7PH mutants were purified as the wild type protein. Purification of human full-length Rac1 carrying a 6xHis tag in C-terminus and human TRIO^DH1PH1 (1232-1550) was described in (Peurois, F. et al. Characterization of the activation of small GTPases by their GEFs on membranes using artificial membrane tethering. Biochem J 474, 1259-1272 (2017)).
# (§3) Lipids (of natural origin) were from Avanti Polar Lipids, except NBD-PE from Sigma. Liposomes were prepared as described in (Aizel, K. et al. Integrated conformational and lipid-sensing regulation of endosomal ArfGEF BRAG2. PLOS Biol 11, e1001652 (2013)) and extruded at 0.2 μm. For the Arf GEF specificity studies, liposomes contained 48% phosphatidylcholine (PC), 20% phosphatidylethanolamine (PE), 30% phosphatidylserine (PS) and 2% phosphatidylinositol-4,5-bisphosphate (PIP2). For Rac activation assay, liposomes contained 43% PC, 20% PE, 10% PS, 20% cholesterol, 2% PIP2, 5% NiNTA lipids and 0.2% NBD-PE. To exclude aggregation or disruption of the liposomes, their size distribution was controlled before and after experiments by dynamic light scattering as described in (Benabdi, S. et al. Biochemistry 56, 5125-5133 (2017)). Dose-response and flotation assays were carried out with liposomes containing 37.9% PC, 20% PE, 20% PS, 2% PIP2, 20% cholesterol and 0.1% NBD-PE. Flotation assays were carried out as in 18.
# (§4) Nucleotide exchange kinetics were monitored by tryptophan fluorescence with excitation/emission wavelengths of 292/340 nm using a Cary Eclipse fluorimeter (Varian) at 37° C. and under continuous stirring as described in ^50,51. […]
# [2] = target: T2, EFA6 (Sec7PHCt construct) (Homo sapiens, UniProt A5PKW4); assay: as above; type: biochemical; conditions: 50 μM
# T2 construct: human EFA6^Sec7 (527-727) and EFA6^Sec7PHCt (527-1024); made in house
# Procedure: as §1, §2, §3, §4
# T2 sequence (A5PKW4 527-1024): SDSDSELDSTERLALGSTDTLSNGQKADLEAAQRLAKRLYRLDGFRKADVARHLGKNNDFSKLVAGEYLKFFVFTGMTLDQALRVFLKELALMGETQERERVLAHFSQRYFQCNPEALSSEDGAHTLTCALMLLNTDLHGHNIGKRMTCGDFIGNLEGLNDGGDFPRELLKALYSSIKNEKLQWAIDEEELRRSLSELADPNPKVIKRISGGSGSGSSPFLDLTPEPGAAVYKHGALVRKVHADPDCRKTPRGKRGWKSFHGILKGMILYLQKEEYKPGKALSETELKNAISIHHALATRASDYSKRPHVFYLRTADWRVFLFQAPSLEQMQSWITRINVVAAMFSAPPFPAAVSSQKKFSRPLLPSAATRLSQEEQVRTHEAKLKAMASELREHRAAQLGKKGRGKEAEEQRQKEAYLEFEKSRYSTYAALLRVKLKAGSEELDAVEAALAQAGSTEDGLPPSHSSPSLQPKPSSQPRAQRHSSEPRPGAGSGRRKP
compound,measurement,setting,value
"Cc1ccc2oc(C(F)(F)F)cc(=O)c2c1[N+](=O)[O-] [Bragsin1, 6-methyl-5-nitro-2-(trifluoromethyl)-4H-chromen-4-one]",Effect on ArfGEF activity on liposomes,[1],no effect
same,Effect on ArfGEF activity on liposomes,[2],no effect
